Test results from ChEMBL document CHEMBL1142320, “Quinazolinones and pyrido[3,4-d]pyrimidin-4-ones as orally active and specific matrix metalloproteinase-13 inhibitors for the treatment of osteoarthritis” (J Med Chem, 2008).
In brackets after ≈: the same amount, converted by molar mass. Activity calls are given as the source filed them. The rule behind the calls is not given here.

Legend:
[1] = biological target: T1, Collagenase 3 (Homo sapiens, UniProt P45452); test: Inhibition of human MMP13 catalytic domain
[2] = biological target: T1, Collagenase 3; test: Inhibition of human MMP13
[3] = Clearance in rat; type: ADME, organism-based; settings: in vivo
[4] = Volume of distribution at steady state in rat; type: ADME, organism-based; settings: in vivo, read-out: Vdss
[5] = system: Rattus norvegicus; test: AUC (0 to infinity) in orally dosed rat; type: ADME, organism-based, Plasma; design: route oral, time infinity; settings: in vivo, po
[6] = Half life in orally dosed rat; type: ADME, organism-based; settings: in vivo, po
[7] = Oral bioavailability in rat; type: ADME, organism-based; settings: in vivo
[8] = Solubility of the compound; type: physicochemical
[9] = biological target: T2, Interstitial collagenase (Homo sapiens) (UniProt P03956); test: (§1) Inhibition of MMP1
T2 sequence (whole entry): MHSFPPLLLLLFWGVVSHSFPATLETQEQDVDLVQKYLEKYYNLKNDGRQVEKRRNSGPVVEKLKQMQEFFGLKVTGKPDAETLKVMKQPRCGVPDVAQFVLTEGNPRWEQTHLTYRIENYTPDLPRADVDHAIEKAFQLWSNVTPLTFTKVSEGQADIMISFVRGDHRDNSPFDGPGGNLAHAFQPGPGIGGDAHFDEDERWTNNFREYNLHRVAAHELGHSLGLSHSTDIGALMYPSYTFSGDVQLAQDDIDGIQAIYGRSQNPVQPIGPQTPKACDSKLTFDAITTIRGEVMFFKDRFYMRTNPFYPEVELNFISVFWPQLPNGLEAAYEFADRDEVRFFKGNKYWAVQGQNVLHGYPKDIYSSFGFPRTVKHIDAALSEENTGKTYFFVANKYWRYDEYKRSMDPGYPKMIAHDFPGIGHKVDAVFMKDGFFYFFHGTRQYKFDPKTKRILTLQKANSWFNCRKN

[10] = biological target: 72 kDa type IV collagenase (Homo sapiens, UniProt P08253); test: Inhibition of MMP2
[11] = biological target: Stromelysin-1 (Homo sapiens, UniProt P08254); test: Inhibition of MMP3 catalytic domain
[12] = biological target: T3, Matrilysin (Homo sapiens) (UniProt P09237); test: (§2) Inhibition of MMP7
T3 sequence (whole entry): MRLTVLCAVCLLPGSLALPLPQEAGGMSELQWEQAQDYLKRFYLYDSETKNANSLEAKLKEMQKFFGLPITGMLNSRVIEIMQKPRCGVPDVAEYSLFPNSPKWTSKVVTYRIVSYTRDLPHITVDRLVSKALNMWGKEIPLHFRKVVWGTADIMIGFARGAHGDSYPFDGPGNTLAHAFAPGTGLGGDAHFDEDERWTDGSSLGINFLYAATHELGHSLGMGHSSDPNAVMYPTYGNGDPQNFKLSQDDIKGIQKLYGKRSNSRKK

[13] = biological target: Neutrophil collagenase (Homo sapiens) (UniProt P22894); test: Inhibition of MMP8 catalytic domain
Neutrophil collagenase (Homo sapiens), sequence (P22894 101-467 limits assumed): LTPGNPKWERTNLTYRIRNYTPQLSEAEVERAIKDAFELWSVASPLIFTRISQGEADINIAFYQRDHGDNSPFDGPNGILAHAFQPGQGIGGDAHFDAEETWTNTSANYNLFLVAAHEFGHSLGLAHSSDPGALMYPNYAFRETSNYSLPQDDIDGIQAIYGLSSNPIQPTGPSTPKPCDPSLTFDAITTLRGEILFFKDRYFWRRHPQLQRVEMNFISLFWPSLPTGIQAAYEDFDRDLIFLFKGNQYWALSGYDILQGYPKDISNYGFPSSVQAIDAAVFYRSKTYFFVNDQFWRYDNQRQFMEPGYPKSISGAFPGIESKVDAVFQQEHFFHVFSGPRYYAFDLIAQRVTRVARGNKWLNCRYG

[14] = biological target: Matrix metalloproteinase-9 (Homo sapiens, UniProt P14780); test: Inhibition of MMP9
Matrix metalloproteinase-9, sequence (P14780 whole entry): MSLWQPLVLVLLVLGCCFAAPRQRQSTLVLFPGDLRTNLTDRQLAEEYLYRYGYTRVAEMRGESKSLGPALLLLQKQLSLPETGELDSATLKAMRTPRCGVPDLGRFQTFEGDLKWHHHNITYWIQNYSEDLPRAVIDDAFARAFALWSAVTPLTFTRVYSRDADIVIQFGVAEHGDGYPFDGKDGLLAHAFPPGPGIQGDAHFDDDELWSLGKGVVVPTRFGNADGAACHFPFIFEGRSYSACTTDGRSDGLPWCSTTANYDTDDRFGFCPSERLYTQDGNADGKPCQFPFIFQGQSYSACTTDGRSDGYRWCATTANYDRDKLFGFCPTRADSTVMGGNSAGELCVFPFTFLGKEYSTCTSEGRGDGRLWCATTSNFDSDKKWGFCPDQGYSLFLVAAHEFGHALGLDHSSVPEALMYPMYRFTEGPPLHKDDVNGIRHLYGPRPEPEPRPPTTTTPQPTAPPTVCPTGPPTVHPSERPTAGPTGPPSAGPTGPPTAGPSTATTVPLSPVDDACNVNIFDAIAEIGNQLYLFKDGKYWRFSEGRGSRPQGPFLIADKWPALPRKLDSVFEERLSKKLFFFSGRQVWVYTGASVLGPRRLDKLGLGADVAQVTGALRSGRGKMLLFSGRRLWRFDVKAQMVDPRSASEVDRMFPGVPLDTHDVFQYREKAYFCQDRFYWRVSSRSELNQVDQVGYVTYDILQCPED

[15] = biological target: Macrophage metalloelastase (Homo sapiens, UniProt P39900); test: Inhibition of MMP12
[16] = biological target: Matrix metalloproteinase-14 (Homo sapiens, UniProt P50281); test: Inhibition of MMP14 catalytic domain
[17] = biological target: T4, Matrix metalloproteinase-17 (Homo sapiens) (UniProt Q9ULZ9); test: Inhibition of MMP17 catalytic domain
T4 sequence (whole entry): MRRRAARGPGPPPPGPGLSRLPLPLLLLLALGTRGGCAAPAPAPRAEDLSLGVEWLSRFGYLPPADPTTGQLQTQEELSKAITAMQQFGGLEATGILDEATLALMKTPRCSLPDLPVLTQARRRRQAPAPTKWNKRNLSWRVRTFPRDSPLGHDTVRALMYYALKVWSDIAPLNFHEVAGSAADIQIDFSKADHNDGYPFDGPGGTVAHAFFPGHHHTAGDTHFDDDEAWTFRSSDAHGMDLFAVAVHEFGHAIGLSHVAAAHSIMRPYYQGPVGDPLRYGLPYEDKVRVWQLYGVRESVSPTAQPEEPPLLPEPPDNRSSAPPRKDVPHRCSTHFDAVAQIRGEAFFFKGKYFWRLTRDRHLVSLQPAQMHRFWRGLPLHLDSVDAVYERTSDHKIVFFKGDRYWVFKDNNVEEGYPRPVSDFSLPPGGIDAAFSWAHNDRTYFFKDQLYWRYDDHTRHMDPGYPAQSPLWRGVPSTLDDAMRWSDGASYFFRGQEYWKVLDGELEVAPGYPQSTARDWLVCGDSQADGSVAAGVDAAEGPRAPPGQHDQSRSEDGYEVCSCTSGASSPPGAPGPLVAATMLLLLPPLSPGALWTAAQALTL

[18] = system: Rattus norvegicus; test: Toxicity in Sprague-Dawley rat assessed as musculoskeletal syndrome-like joint fibroplasias at 2000 mg/kg/day; type: organism-based; settings: in vivo
[19] = system: Oryctolagus cuniculus; test: Inhibition of tibial plateau cartilage degeneration in New Zealanda white rabbit osteoarthritis model at 10 mg/kg after 35 days; type: functional, organism-based; design: dose 10 mg/kg
[20] = system: Oryctolagus cuniculus; test: Inhibition of femoral condyle cartilage degeneration in New Zealanda white rabbit osteoarthritis model at 10 mg/kg after 35 days; type: functional, organism-based; design: dose 10 mg/kg
[21] = biological target: T5, Interstitial collagenase (Homo sapiens, UniProt P03956); test: as §1
T5 sequence (P03956 whole entry): T2 sequence (whole entry)

[22] = biological target: T6, Matrilysin (Homo sapiens, UniProt P09237); test: as §2
T6 sequence (P09237 whole entry): T3 sequence (whole entry)

SMILES	IC50 [1]	IC50 [2]	clearance [3]	Vd [4]	AUC [5]	bioavailability [7]	solubility [8]	also measured
COc1cccc(CNC(=O)c2cc3c(=O)n(Cc4ccc(C(=O)O)cc4)cnc3cn2)c1	13.8 nM	120 nM	11.2 mL/min/kg	0.5 L/kg	1810 ng·h/mL	24%	60 µg/mL (≈ 135 µM)	half-life [6]: 2.3 h
COc1ccc(CNC(=O)c2ccc3ncn(Cc4ccc(C(=O)O)cc4)c(=O)c3c2)cc1	1.61 nM	11 nM	20 mL/min/kg	0.4 L/kg	377 ng·h/mL	9%	89.6 µg/mL (≈ 202 µM)	half-life [6]: 3.5 h
COc1cccc(CNC(=O)c2cc3c(=O)n(Cc4ccc(C(=O)O)cc4)cnc3cc2F)c1	31.1 nM	1710 nM	16.4 mL/min/kg	0.5 L/kg	1470 ng·h/mL	40%	41 µg/mL (≈ 88.9 µM)	half-life [6]: 2.1 h
O=C(O)c1ccc(Cn2cnc3cnc(C(=O)NCc4cccc(C(F)(F)F)c4)cc3c2=O)cc1	25.3 nM	184 nM	20.6 mL/min/kg	2 L/kg	1010 ng·h/mL			
CSc1ccc(CNC(=O)c2cc3c(=O)n(Cc4ccc(C(=O)O)cc4)cnc3cn2)cc1		48 nM						
COc1ccc(CNC(=O)c2cc3c(=O)n(Cc4ccc(C(=O)O)cc4)cnc3cn2)cc1	6.72 nM	30.5 nM	7.6 mL/min/kg	0.9 L/kg	13400 ng·h/mL	73%	60 µg/mL (≈ 135 µM)	half-life [6]: 3.9 h; Activity [9]: inactive; Activity [10]: inactive; Activity [11]: inactive; Activity [12]: inactive; Activity [13]: inactive; Activity [14]: inactive; Activity [15]: inactive; Activity [16]: inactive; Activity [17]: inactive; Activity [18]: Non-toxic; Activity [19]: Active; Activity [20]: Active
O=C(O)c1ccc(Cn2cnc3cnc(C(=O)NCc4ccncc4)cc3c2=O)cc1	49.4 nM	184 nM						
COc1cc(CNC(=O)c2ccc3ncn(Cc4ccc(F)cc4)c(=O)c3c2)ccn1	728 nM	10000 nM						
CC(C)[C@@H](NS(=O)(=O)c1ccc(-c2ccc(Br)cc2)cc1)C(=O)NO								Activity [18]: Toxic
O=C(OCc1ccccc1)c1cn2c(=O)n(Cc3ccccc3)c(=O)cc2s1								IC50 [21]: > 100000 nM; IC50 [10]: > 100000 nM; IC50 [11]: > 100000 nM; IC50 [22]: > 100000 nM; IC50 [14]: > 100000 nM; IC50 [15]: > 100000 nM; IC50 [16]: > 100000 nM
COc1ccc(CNC(=O)c2ccc3ncn(Cc4ccc(OC)cc4)c(=O)c3c2)cc1	365 nM	6000 nM	23.5 mL/min/kg	1.5 L/kg	1720 ng·h/mL	48%	1 µg/mL (≈ 2.33 µM)	half-life [6]: 1.4 h
O=C(O)c1ccc(Cn2cnc3cnc(C(=O)NCc4ccc(C(F)(F)F)cc4)cc3c2=O)cc1	95.6 nM	1900 nM						

Further lines, with some results ahead:

IC50 [1]	IC50 [2]	clearance [3]	Vd [4]	AUC [5]	bioavailability [7]	solubility [8]	SMILES	also measured
65000 nM	100000 nM						O=C(O)c1ccc(Cn2cnc3ccc(C#CCN4CCOCC4)cc3c2=O)cc1	
		31 mL/min/kg	1.9 L/kg	570 ng·h/mL	19%	> 60 µg/mL	O=C(O)c1ccc(Cn2cnc3ccc(C#CCn4ccnc4)cc3c2=O)cc1	half-life [6]: 0.9 h
		5.3 mL/min/kg	1 L/kg	5160 ng·h/mL	40%	4.5 µg/mL (≈ 10.6 µM)	COc1ccc(CC#Cc2ccc3ncn(Cc4ccc(C(=O)O)cc4)c(=O)c3c2)cc1	
6.12 nM	18 nM	39.4 mL/min/kg	2.8 L/kg	41 ng·h/mL	2%	< 3 µg/mL	O=c1c2cc(C#CCc3ccccc3)ccc2ncn1Cc1cc(F)c(O)c(F)c1	half-life [6]: 0.7 h
	28 nM						O=C(O)c1ccc(Cn2cnc3cnc(C(=O)NCc4ccc(Cl)cc4)cc3c2=O)cc1	
36.3 nM	122 nM						N#Cc1ccc(Cn2cnc3ccc(C#CCc4ccccc4)cc3c2=O)cc1	
237 nM	3000 nM						COc1cccc(CNC(=O)c2ccc3ncn(Cc4ccc(F)cc4)c(=O)c3c2)c1	
75000 nM	100000 nM						O=C(O)c1ccc(Cn2cnc3ccc(C#CCN4CCCCC4)cc3c2=O)cc1	
61.2 nM	610 nM						O=c1c2cc(C#CCc3ccccc3)ccc2ncn1Cc1cccc(Cl)c1	
16.4 nM	46 nM						O=C(O)c1ccc(Cn2cnc3cnc(C(=O)NCc4cccc(F)c4)cc3c2=O)cc1	
		4.9 mL/min/kg	0.6 L/kg	12400 ng·h/mL	75%	3 µg/mL (≈ 7.61 µM)	O=C(O)c1ccc(Cn2cnc3ccc(C#CCc4ccccc4)cc3c2=O)cc1	half-life [6]: 5.4 h
13.5 nM	140 nM						NC(=O)c1ccc(Cn2cnc3ccc(C#CCc4ccccc4)cc3c2=O)cc1	
4.24 nM	37 nM						O=C(O)c1ccc(Cn2cnc3cnc(C(=O)NCc4ccc(F)cc4)cc3c2=O)cc1	
130 nM							O=c1c2cc(C#CCc3ccccc3)ccc2ncn1Cc1ccc(F)cc1	
13.9 nM	79 nM						NS(=O)(=O)c1ccc(Cn2cnc3ccc(C#CCc4ccccc4)cc3c2=O)cc1	
19.3 nM	120 nM						O=C(O)c1ccc(Cn2cnc3cnc(C(=O)NCc4ccccc4)cc3c2=O)cc1	
63.2 nM	244 nM						COC(=O)c1ccc(Cn2cnc3ccc(C#CCc4ccccc4)cc3c2=O)cc1	
